Data taken from patent US20100249439A1, “PROCESS FOR CONTROLLED CRYSTAL SIZE IN 1,2-SUBSTITUTED 3,4-DIOXO-1-CYCLOBUTENE COMPOUNDS” (priority 2007, published 2010).

Experiment: Specific cake resistance measurement (pressure filtration of crystal slurry, Tiller equation)
Type: physicochemical
Experimental: There follows examples of the present invention controlled crystallization process yielding crystalline material having improved filter cake specific resistance. For each of these examples, the filter cake specific resistance was measured in accordance with the following procedure. Specific Cake Resistance Measurement Procedure V(i): Into a pressure filter, the crystal slurry was filled. The filtration was then carried out under a constant pressure while the filtrate volume along with the filtration time was logged. During the cake formation, the relationship between the filtrate volume and the filtration time can be described by the Tiller equation: [formula] where: μ is the viscosity of filtrate, lb/ft-s or Pa·s; α is a specific cake resistance, ft, lb or […]; c is the mass solid deposited in the filter per unit volume of filtrate, lb/ft^3 or kg/m^3: A is the filtration area, ft^2 or m^2; gc is Newton's law proportionality factor; p is the pressure, lbf/ft2 or atm; Rm is the filter-medium resistance, ft^−1 or m^−1. The specific cake resistance a can be calculated from the slope of the linear plot of t/V vs. V.

filter cake specific resistance (Form 4 crystals precipitated from the reaction mixture of Scheme IIa steps a and b, conventional crystallization without temperature cycling): about 8.0×10^11 m/kg
filter cake specific resistance (Form 4 monohydrate crystals from n-propanol/water after seeding and temperature cycling (Va: 4 cycles 53-20° C.; Vb: 8 cycles; Vc: 19 cycles 43-20° C.), listed as Example Va): 6.4×10^11 m/Kg
filter cake specific resistance (Form 4 monohydrate crystals from n-propanol/water after seeding and temperature cycling (Va: 4 cycles 53-20° C.; Vb: 8 cycles; Vc: 19 cycles 43-20° C.), listed as Example Vb): 2.5×10^11 m/Kg
filter cake specific resistance (Form 4 monohydrate crystals from n-propanol/water after seeding and temperature cycling (Va: 4 cycles 53-20° C.; Vb: 8 cycles; Vc: 19 cycles 43-20° C.), listed as Example Vc): 1.99×10^11 m/Kg
SMILES: CC[C@@H](Nc1c(Nc2cccc(C(=O)N(C)C)c2O)c(=O)c1=O)c1ccc(C)o1 [compound of Formula I, 2-Hydroxy-N,N-dimethyl-3-[[2-[[1(R)-(5-methyl-2-furanyl)propyl]amino]-3,4-dioxo-1-cyclobuten-1-yl]amino]benzamide]
